Measured values from patent US10934298B2, “Substituted pyrazolo[1,5-a]pyrimidines for the treatment of medical disorders” (BIAL—BioTech Investments, Inc., priority 2016, dated 2021).
Values belong to the compound of their own block, whether it stands above or below them.

Biological target: T1, glucocerebrosidase (Gcase) (Homo sapiens, UniProt P04062)
T1 construct: micellar solution containing 10 nM GCase and 100 nM saposin C
T1 sequence (P04062 40-536): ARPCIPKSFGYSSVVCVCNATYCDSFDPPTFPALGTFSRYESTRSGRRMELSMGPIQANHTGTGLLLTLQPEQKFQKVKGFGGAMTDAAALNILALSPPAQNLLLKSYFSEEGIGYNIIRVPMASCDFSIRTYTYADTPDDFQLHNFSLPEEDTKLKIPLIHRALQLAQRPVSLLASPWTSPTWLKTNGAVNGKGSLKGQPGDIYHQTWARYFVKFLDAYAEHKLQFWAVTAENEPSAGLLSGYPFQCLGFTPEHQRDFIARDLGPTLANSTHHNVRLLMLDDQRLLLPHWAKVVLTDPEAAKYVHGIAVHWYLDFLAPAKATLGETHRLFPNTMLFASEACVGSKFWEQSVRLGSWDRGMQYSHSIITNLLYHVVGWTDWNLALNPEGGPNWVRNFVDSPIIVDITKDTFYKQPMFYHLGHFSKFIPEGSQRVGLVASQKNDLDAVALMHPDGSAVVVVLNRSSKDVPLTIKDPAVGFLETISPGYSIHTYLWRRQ
Assay: Glucocerebrosidase (Gcase) activation assay with 4-methylumbelliferyl-beta-D-glucopyranoside substrate, saposin C and phosphatidylserine/triton micelles, fluorescence readout
Format: biochemical
Settings: for Percent Gcase Activation, 0.1 μM Test Compound: test compound at 0.1 μM; for Percent Gcase Activation, 1 μM Test Compound: test compound at 1.0 μM
In short: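 10 nM GCase with 100 nM saposin C pre-incubated 30 min with compound in pH 4.7 phosphate/citrate PS/triton micelles, then mixed 1:1 with 2 mM 4-methylumbelliferyl-β-glucoside micellar substrate (stock level). Run 15 min at room temperature, stopped at pH 12.5; fluorescence 365/440 nm. Screened at 1.0 and 0.1 μM; 8-point curves from 5 μM.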

SMILES: Cc1cc(-c2ccc3c(c2)OCO3)nc2c(C(=O)N[C@@H](C)C3CC3)cnn12 [III-210]
Percent Gcase Activation, 0.1 μM Test Compound: *** (greater than 20% Gcase activation)
Percent Gcase Activation, 1 μM Test Compound: +++ (Gcase activation greater than 60%)

SMILES: Cc1cc(-c2ccccc2C#N)nc2c(C(=O)N[C@H](C)C(F)(F)F)cnn12 [III-212]
Percent Gcase Activation, 0.1 μM Test Compound: * (less than 10% Gcase activation)
Percent Gcase Activation, 1 μM Test Compound: ++ (Gcase activation in the range of 30% up to 60%)

SMILES: Cc1cc(-c2ccccc2C#N)nc2c(C(=O)N[C@@H](C)C(F)(F)F)cnn12 [III-213]
Percent Gcase Activation, 0.1 μM Test Compound: *** (greater than 20% Gcase activation)
Percent Gcase Activation, 1 μM Test Compound: +++ (Gcase activation greater than 60%)

SMILES: Cc1cc(-c2cccc3ncoc23)nc2c(C(=O)N[C@@H](C)C3CC3)cnn12 [III-217]
Percent Gcase Activation, 0.1 μM Test Compound: ** (Gcase activation in the range of 10% up to 20%)
Percent Gcase Activation, 1 μM Test Compound: +++ (Gcase activation greater than 60%)

SMILES: Cc1cc(-c2cccc3ncoc23)nc2c(C(=O)N[C@H](C)C3CC3)cnn12 [III-218]
Percent Gcase Activation, 0.1 μM Test Compound: * (less than 10% Gcase activation)
Percent Gcase Activation, 1 μM Test Compound: ++ (Gcase activation in the range of 30% up to 60%)

SMILES: Cc1cc(-c2cccc3ncoc23)nc2c(C(=O)NC(C)(C)C(F)(F)F)cnn12 [III-219]
Percent Gcase Activation, 0.1 μM Test Compound: ** (Gcase activation in the range of 10% up to 20%)
Percent Gcase Activation, 1 μM Test Compound: ++ (Gcase activation in the range of 30% up to 60%)

SMILES: Cc1cc(-c2ccc3scnc3c2)nc2c(C(=O)NC(C)C(F)(F)F)cnn12 (stereo not shown) [III-220]
Percent Gcase Activation, 0.1 μM Test Compound: *** (greater than 20% Gcase activation)
Percent Gcase Activation, 1 μM Test Compound: +++ (Gcase activation greater than 60%)

SMILES: Cc1cc(-c2cccc3ncsc23)nc2c(C(=O)N[C@@H](C)C3CC3)cnn12 [III-222]
Percent Gcase Activation, 0.1 μM Test Compound: *** (greater than 20% Gcase activation)
Percent Gcase Activation, 1 μM Test Compound: +++ (Gcase activation greater than 60%)

SMILES: Cc1cc(-c2cccc3ncoc23)nc2c(C(=O)NC(C)(C)C3CC3)cnn12 [III-223]
Percent Gcase Activation, 0.1 μM Test Compound: *** (greater than 20% Gcase activation)
Percent Gcase Activation, 1 μM Test Compound: +++ (Gcase activation greater than 60%)

SMILES: CCc1cc(N2CCN(C(C)C)C2=O)nc2c(C(=O)NC(C3CC3)C(F)(F)F)cnn12 (stereo not shown) [III-224]
Percent Gcase Activation, 0.1 μM Test Compound: ** (Gcase activation in the range of 10% up to 20%)
Percent Gcase Activation, 1 μM Test Compound: +++ (Gcase activation greater than 60%)

SMILES: CCc1cc(N2CCN(C(C)C)C2=O)nc2c(C(=O)NC(C)C(F)(F)F)cnn12 (stereo not shown) [III-226]
Percent Gcase Activation, 0.1 μM Test Compound: * (less than 10% Gcase activation)
Percent Gcase Activation, 1 μM Test Compound: ++ (Gcase activation in the range of 30% up to 60%)

SMILES: Cc1cc(N2CCN(C(C)C)C2=O)nc2c(C(=O)NC(C)C(F)(F)F)cnn12 (stereo not shown) [III-227]
Percent Gcase Activation, 0.1 μM Test Compound: * (less than 10% Gcase activation)
Percent Gcase Activation, 1 μM Test Compound: + (less than 30% Gcase activation)

SMILES: CCc1cc(N2CCN(C(C)C)C2=O)nc2c(C(=O)NC(C)(C)C)cnn12 [III-229]
Percent Gcase Activation, 0.1 μM Test Compound: * (less than 10% Gcase activation)
Percent Gcase Activation, 1 μM Test Compound: ++ (Gcase activation in the range of 30% up to 60%)

SMILES: Cc1cc(N2CCN(C(C)C)C2=O)nc2c(C(=O)NC(C)(C)C3CC3)cnn12 [III-230]
Percent Gcase Activation, 0.1 μM Test Compound: * (less than 10% Gcase activation)
Percent Gcase Activation, 1 μM Test Compound: ++ (Gcase activation in the range of 30% up to 60%)

SMILES: Cc1cc(N2CCN(C(C)C)C2=O)nc2c(C(=O)NC(C)(C)C(F)(F)F)cnn12 [III-231]
Percent Gcase Activation, 0.1 μM Test Compound: * (less than 10% Gcase activation)
Percent Gcase Activation, 1 μM Test Compound: ++ (Gcase activation in the range of 30% up to 60%)

SMILES: Cc1cc(N2CCN(C(C)C)C2=O)nc2c(C(=O)NC(C)(C)C)cnn12 [III-232]
Percent Gcase Activation, 0.1 μM Test Compound: * (less than 10% Gcase activation)
Percent Gcase Activation, 1 μM Test Compound: + (less than 30% Gcase activation)

Second part, led by results:

Percent Gcase Activation, 0.1 μM Test Compound: *** (greater than 20% Gcase activation)
Percent Gcase Activation, 1 μM Test Compound: +++ (Gcase activation greater than 60%)
SMILES: Cc1cc(-c2ccns2)nc2c(C(=O)N[C@@H](C)C3CC3)cnn12 [III-197]

Percent Gcase Activation, 0.1 μM Test Compound: * (less than 10% Gcase activation)
Percent Gcase Activation, 1 μM Test Compound: +++ (Gcase activation greater than 60%)
SMILES: Cc1cc(-c2ccns2)nc2c(C(=O)N[C@H](C)C3CC3)cnn12 [III-198]

Percent Gcase Activation, 0.1 μM Test Compound: * (less than 10% Gcase activation)
SMILES: Cc1cc(-c2cnccc2F)nc2c(C(=O)NC(C)C(F)(F)F)cnn12 (stereo not shown) [III-199]
Percent Gcase Activation, 1 μM Test Compound: ++ (Gcase activation in the range of 30% up to 60%)

Percent Gcase Activation, 0.1 μM Test Compound: *** (greater than 20% Gcase activation)
Percent Gcase Activation, 1 μM Test Compound: +++ (Gcase activation greater than 60%)
SMILES: Cc1cc(-c2cncc(Cl)c2)nc2c(C(=O)NC(C)C(F)(F)F)cnn12 (stereo not shown) [III-200]

Percent Gcase Activation, 0.1 μM Test Compound: *** (greater than 20% Gcase activation)
Percent Gcase Activation, 1 μM Test Compound: +++ (Gcase activation greater than 60%)
SMILES: Cc1cc(-c2cncc(Cl)c2)nc2c(C(=O)N[C@H](C)C(F)(F)F)cnn12 [III-201]

Percent Gcase Activation, 0.1 μM Test Compound: *** (greater than 20% Gcase activation)
Percent Gcase Activation, 1 μM Test Compound: +++ (Gcase activation greater than 60%)
SMILES: Cc1cc(-c2cncc(Cl)c2)nc2c(C(=O)N[C@@H](C)C(F)(F)F)cnn12 [III-202]

Percent Gcase Activation, 0.1 μM Test Compound: *** (greater than 20% Gcase activation)
Percent Gcase Activation, 1 μM Test Compound: +++ (Gcase activation greater than 60%)
SMILES: Cc1cc(-c2ncccc2F)nc2c(C(=O)NC(C3CC3)C(F)(F)F)cnn12 (stereo not shown) [III-203]

Percent Gcase Activation, 0.1 μM Test Compound: *** (greater than 20% Gcase activation)
Percent Gcase Activation, 1 μM Test Compound: +++ (Gcase activation greater than 60%)
SMILES: Cc1cc(-c2ccc(F)cn2)nc2c(C(=O)NC(C3CC3)C(F)(F)F)cnn12 (stereo not shown) [III-204]

Percent Gcase Activation, 0.1 μM Test Compound: *** (greater than 20% Gcase activation)
Percent Gcase Activation, 1 μM Test Compound: +++ (Gcase activation greater than 60%)
SMILES: Cc1cc(-c2cc(F)ccn2)nc2c(C(=O)NC(C3CC3)C(F)(F)F)cnn12 (stereo not shown) [III-205]

Percent Gcase Activation, 0.1 μM Test Compound: *** (greater than 20% Gcase activation)
Percent Gcase Activation, 1 μM Test Compound: +++ (Gcase activation greater than 60%)
SMILES: Cc1cc(-c2ncccc2Cl)nc2c(C(=O)NC(C3CC3)C(F)(F)F)cnn12 (stereo not shown) [III-206]

Percent Gcase Activation, 0.1 μM Test Compound: *** (greater than 20% Gcase activation)
Percent Gcase Activation, 1 μM Test Compound: +++ (Gcase activation greater than 60%)
SMILES: Cc1cc(-c2cc(Cl)ccn2)nc2c(C(=O)NC(C3CC3)C(F)(F)F)cnn12 (stereo not shown) [III-207]

Percent Gcase Activation, 1 μM Test Compound: + (less than 30% Gcase activation)
SMILES: Cc1cc(-c2ccc(Cl)cn2)nc2c(C(=O)NC(C3CC3)C(F)(F)F)cnn12 (stereo not shown) [III-208]
Percent Gcase Activation, 0.1 μM Test Compound: ** (Gcase activation in the range of 10% up to 20%)

Percent Gcase Activation, 0.1 μM Test Compound: *** (greater than 20% Gcase activation)
Percent Gcase Activation, 1 μM Test Compound: +++ (Gcase activation greater than 60%)
SMILES: Cc1cc(-c2nccs2)nc2c(C(=O)NC(C3CC3)C(F)(F)F)cnn12 (stereo not shown) [III-209]

Percent Gcase Activation, 0.1 μM Test Compound: *** (greater than 20% Gcase activation)
Percent Gcase Activation, 1 μM Test Compound: +++ (Gcase activation greater than 60%)
SMILES: Cc1cc(-c2ccccc2C#N)nc2c(C(=O)NC(C3CC3)C(F)(F)F)cnn12 (stereo not shown) [III-211]

Percent Gcase Activation, 0.1 μM Test Compound: *** (greater than 20% Gcase activation)
Percent Gcase Activation, 1 μM Test Compound: +++ (Gcase activation greater than 60%)
SMILES: Cc1cc(-c2cc(C)n3ncc(C(=O)NC(C4CC4)C(F)(F)F)c3n2)sn1 (stereo not shown) [III-214]

Percent Gcase Activation, 0.1 μM Test Compound: *** (greater than 20% Gcase activation)
Percent Gcase Activation, 1 μM Test Compound: +++ (Gcase activation greater than 60%)
SMILES: Cc1cc(-c2cc(C)n3ncc(C(=O)N[C@H](C4CC4)C(F)(F)F)c3n2)sn1 [III-215]

Percent Gcase Activation, 0.1 μM Test Compound: *** (greater than 20% Gcase activation)
Percent Gcase Activation, 1 μM Test Compound: +++ (Gcase activation greater than 60%)
SMILES: Cc1cc(-c2cc(C)n3ncc(C(=O)N[C@@H](C4CC4)C(F)(F)F)c3n2)sn1 [III-216]

Percent Gcase Activation, 0.1 μM Test Compound: *** (greater than 20% Gcase activation)
Percent Gcase Activation, 1 μM Test Compound: +++ (Gcase activation greater than 60%)
SMILES: Cc1cc(-c2cccc3ncsc23)nc2c(C(=O)NC(C)C(F)(F)F)cnn12 (stereo not shown) [III-221]

Percent Gcase Activation, 1 μM Test Compound: +++ (Gcase activation greater than 60%)
SMILES: Cc1cc(N2CCN(C(C)C)C2=O)nc2c(C(=O)NC(C3CC3)C(F)(F)F)cnn12 (stereo not shown) [III-225]
Percent Gcase Activation, 0.1 μM Test Compound: ** (Gcase activation in the range of 10% up to 20%)

Percent Gcase Activation, 0.1 μM Test Compound: * (less than 10% Gcase activation)
Percent Gcase Activation, 1 μM Test Compound: +++ (Gcase activation greater than 60%)
SMILES: Cc1cc(N2CCNC2=O)nc2c(C(=O)NC(C3CC3)C(F)(F)F)cnn12 (stereo not shown) [III-228]

Percent Gcase Activation, 1 μM Test Compound: +++ (Gcase activation greater than 60%)
SMILES: Cc1cc(N2CCN(CC(F)(F)F)C2=O)nc2c(C(=O)NC(C3CC3)C(F)(F)F)cnn12 (stereo not shown) [III-233]
Percent Gcase Activation, 0.1 μM Test Compound: ** (Gcase activation in the range of 10% up to 20%)

Percent Gcase Activation, 0.1 μM Test Compound: *** (greater than 20% Gcase activation)
Percent Gcase Activation, 1 μM Test Compound: +++ (Gcase activation greater than 60%)
SMILES: Cc1cc(-c2cccc(Cl)n2)nc2c(C(=O)NC(C)C(F)(F)F)cnn12 (stereo not shown) [III-234]
